Data reported in patent US20110039721A1, “METHOD FOR PREDICTION ABOUT CARCINOGENICITY OF SUBSTANCE IN RODENT” (Chemicals Evaluation and Research Institute, priority 2007, published 2011).

Assays:
[1] = system: mRNA expressed from the genes (A) to (D) in rat liver; test: Behavior of genes (mRNA expression level, oligo-DNA microarray) in rat liver after 28-day oral administration; type: in vivo; details: mRNA vs vehicle control group; for Behavior of gene caused by administration of chemical substance, Gene No. 4846 / Behavior of gene caused by administration of chemical substance, Gene No. 2026 / Behavior of gene caused by administration of chemical substance, Gene No. 4218 / Behavior of gene caused by administration of chemical substance, Gene No. 6182 / Behavior of gene caused by administration of chemical substance, Gene No. 5600: gene group (A); for Behavior of gene caused by administration of chemical substance, Gene No. 4846: Unigene No. Rn.144554; for Behavior of gene caused by administration of chemical substance, Gene No. 2026 / Behavior of gene caused by administration of chemical substance, Gene No. 4218: Unigene No. Rn.167075; for Behavior of gene caused by administration of chemical substance, Gene No. 6182: Unigene No. Rn.5834; for Behavior of gene caused by administration of chemical substance, Gene No. 5600: Unigene No. Rn.9836; for Behavior of gene caused by administration of chemical substance, Gene No. 1494 / Behavior of gene caused by administration of chemical substance, Gene No. 2045 / Behavior of gene caused by administration of chemical substance, Gene No. 2203: gene group (B); for Behavior of gene caused by administration of chemical substance, Gene No. 1494: Unigene No. Rn.1430; for Behavior of gene caused by administration of chemical substance, Gene No. 2045: Unigene No. Rn.19329; for Behavior of gene caused by administration of chemical substance, Gene No. 2203: Unigene No. Rn.21240; for Behavior of gene caused by administration of chemical substance, Gene No. 533 / Behavior of gene caused by administration of chemical substance, Gene No. 725 / Behavior of gene caused by administration of chemical substance, Gene No. 1163 / Behavior of gene caused by administration of chemical substance, Gene No. 4973 / Behavior of gene caused by administration of chemical substance, Gene No. 4095 / Behavior of gene caused by administration of chemical substance, Gene No. 1334 / Behavior of gene caused by administration of chemical substance, Gene No. 6620 / Behavior of gene caused by administration of chemical substance, Gene No. 6303 / Behavior of gene caused by administration of chemical substance, Gene No. 5878 / Behavior of gene caused by administration of chemical substance, Gene No. 1131 / Behavior of gene caused by administration of chemical substance, Gene No. 1562 / Behavior of gene caused by administration of chemical substance, Gene No. 1741 / Behavior of gene caused by administration of chemical substance, Gene No. 893 / Behavior of gene caused by administration of chemical substance, Gene No. 6026 / Behavior of gene caused by administration of chemical substance, Gene No. 154 / Behavior of gene caused by administration of chemical substance, Gene No. 1993 / Behavior of gene caused by administration of chemical substance, Gene No. 813 / Behavior of gene caused by administration of chemical substance, Gene No. 2494 / Behavior of gene caused by administration of chemical substance, Gene No. 2546 / Behavior of gene caused by administration of chemical substance, Gene No. 3776 / Behavior of gene caused by administration of chemical substance, Gene No. 3929 / Behavior of gene caused by administration of chemical substance, Gene No. 1119 / Behavior of gene caused by administration of chemical substance, Gene No. 6742 / Behavior of gene caused by administration of chemical substance, Gene No. 5634: gene group (C); for Behavior of gene caused by administration of chemical substance, Gene No. 533: Unigene No. Rn.106184; for Behavior of gene caused by administration of chemical substance, Gene No. 725: Unigene No. Rn.108075; for Behavior of gene caused by administration of chemical substance, Gene No. 1163: Unigene No. Rn.11766; for Behavior of gene caused by administration of chemical substance, Gene No. 4973: Unigene No. Rn.118529; for Behavior of gene caused by administration of chemical substance, Gene No. 4095: Unigene No. Rn.119024; for Behavior of gene caused by administration of chemical substance, Gene No. 1334 / Behavior of gene caused by administration of chemical substance, Gene No. 6620: Unigene No. Rn.120914; for Behavior of gene caused by administration of chemical substance, Gene No. 6303: Unigene No. Rn.123063; for Behavior of gene caused by administration of chemical substance, Gene No. 5878: Unigene No. Rn.143213; for Behavior of gene caused by administration of chemical substance, Gene No. 1131: Unigene No. Rn.144946; for Behavior of gene caused by administration of chemical substance, Gene No. 1562: Unigene No. Rn.14744; for Behavior of gene caused by administration of chemical substance, Gene No. 1741: Unigene No. Rn.1647; for Behavior of gene caused by administration of chemical substance, Gene No. 893: Unigene No. Rn.164817; for Behavior of gene caused by administration of chemical substance, Gene No. 6026: Unigene No. Rn.167685; for Behavior of gene caused by administration of chemical substance, Gene No. 154: Unigene No. Rn.185941; for Behavior of gene caused by administration of chemical substance, Gene No. 1993: Unigene No. Rn.18728; for Behavior of gene caused by administration of chemical substance, Gene No. 813: Unigene No. Rn.201760; for Behavior of gene caused by administration of chemical substance, Gene No. 2494: Unigene No. Rn.23969; for Behavior of gene caused by administration of chemical substance, Gene No. 2546: Unigene No. Rn.24561; for Behavior of gene caused by administration of chemical substance, Gene No. 3776: Unigene No. Rn.43232; for Behavior of gene caused by administration of chemical substance, Gene No. 3929: Unigene No. Rn.4620; for Behavior of gene caused by administration of chemical substance, Gene No. 1119: Unigene No. Rn.9757; for Behavior of gene caused by administration of chemical substance, Gene No. 6742: Unigene No. Rn.9779; for Behavior of gene caused by administration of chemical substance, Gene No. 5634: Unigene No. Rn.9862; for Behavior of gene caused by administration of chemical substance, Gene No. 5726: gene group (D), Unigene No. Rn.9939
How it was run: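 Rat liver RNA after 28 days of daily gavage dosing (male F344, 5 weeks old, four per group). A change reaching 1.5-fold, or 1/1.5, against solvent control scores as significant; opposite direction versus another carcinogen scores as not significant.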

[2] = system: liver; details: classification of the substance (Cr+/Cr−); cited from earlier work
[3] = system: rodent; details: classification of the substance (C+/C−); cited from earlier work
[4] = classification of the substance (M+/M−); cited from earlier work

Row | SMILES | Behavior of gene caused by administration of chemical substance, Gene No. 4846 [1] | Behavior of gene caused by administration of chemical substance, Gene No. 2026 [1] | Behavior of gene caused by administration of chemical substance, Gene No. 4218 [1] | Behavior of gene caused by administration of chemical substance, Gene No. 6182 [1] | Behavior of gene caused by administration of chemical substance, Gene No. 5600 [1] | Behavior of gene caused by administration of chemical substance, Gene No. 1494 [1] | Behavior of gene caused by administration of chemical substance, Gene No. 2045 [1] | Behavior of gene caused by administration of chemical substance, Gene No. 2203 [1] | Behavior of gene caused by administration of chemical substance, Gene No. 533 [1] | Behavior of gene caused by administration of chemical substance, Gene No. 725 [1] | Behavior of gene caused by administration of chemical substance, Gene No. 1163 [1] | Behavior of gene caused by administration of chemical substance, Gene No. 4973 [1] | Behavior of gene caused by administration of chemical substance, Gene No. 4095 [1] | Behavior of gene caused by administration of chemical substance, Gene No. 1334 [1] | Behavior of gene caused by administration of chemical substance, Gene No. 6620 [1] | Behavior of gene caused by administration of chemical substance, Gene No. 6303 [1] | Behavior of gene caused by administration of chemical substance, Gene No. 5878 [1] | Behavior of gene caused by administration of chemical substance, Gene No. 1131 [1] | Behavior of gene caused by administration of chemical substance, Gene No. 1562 [1] | Behavior of gene caused by administration of chemical substance, Gene No. 1741 [1] | other results
1 | C#C[C@]1(O)CC[C@H]2[C@@H]3CCc4cc(O)ccc4[C@H]3CC[C@@]21C [TS019, Ethinylestradiol] | + | − | − | + | − | − | − | + | + | + | + | + | + | + | + | + | + | + | + | + | Behavior of gene caused by administration of chemical substance, Gene No. 893 [1]: +; Behavior of gene caused by administration of chemical substance, Gene No. 6026 [1]: +; Behavior of gene caused by administration of chemical substance, Gene No. 154 [1]: +; Behavior of gene caused by administration of chemical substance, Gene No. 1993 [1]: +; Behavior of gene caused by administration of chemical substance, Gene No. 813 [1]: −; Behavior of gene caused by administration of chemical substance, Gene No. 2494 [1]: +; Behavior of gene caused by administration of chemical substance, Gene No. 2546 [1]: +; Behavior of gene caused by administration of chemical substance, Gene No. 3776 [1]: +; Behavior of gene caused by administration of chemical substance, Gene No. 3929 [1]: +; Behavior of gene caused by administration of chemical substance, Gene No. 1119 [1]: +; Behavior of gene caused by administration of chemical substance, Gene No. 6742 [1]: −; Behavior of gene caused by administration of chemical substance, Gene No. 5634 [1]: +; Behavior of gene caused by administration of chemical substance, Gene No. 5726 [1]: −; Liver carcinogenicity [2]: Cr+; Carcinogenicity [3]: C+; Mutagenicity by Ames test [4]: M−
2 | ClC=C(Cl)Cl [TS022, Trichloroethylene] | + | − | − | + | − | + | + | + | − | − | − | − | − | − | − | − | − | − | − | − | Behavior of gene caused by administration of chemical substance, Gene No. 893 [1]: −; Behavior of gene caused by administration of chemical substance, Gene No. 6026 [1]: −; Behavior of gene caused by administration of chemical substance, Gene No. 154 [1]: −; Behavior of gene caused by administration of chemical substance, Gene No. 1993 [1]: −; Behavior of gene caused by administration of chemical substance, Gene No. 813 [1]: −; Behavior of gene caused by administration of chemical substance, Gene No. 2494 [1]: −; Behavior of gene caused by administration of chemical substance, Gene No. 2546 [1]: −; Behavior of gene caused by administration of chemical substance, Gene No. 3776 [1]: −; Behavior of gene caused by administration of chemical substance, Gene No. 3929 [1]: −; Behavior of gene caused by administration of chemical substance, Gene No. 1119 [1]: −; Behavior of gene caused by administration of chemical substance, Gene No. 6742 [1]: +; Behavior of gene caused by administration of chemical substance, Gene No. 5634 [1]: −; Behavior of gene caused by administration of chemical substance, Gene No. 5726 [1]: −; Liver carcinogenicity [2]: Cr−; Carcinogenicity [3]: C+; Mutagenicity by Ames test [4]: M−
